What was measured:
[1] = system: Aortic smooth muscle cells; experiment: Matrix production in the presence of ascorbic acid, aortic smooth muscle cells; type: cell-based; conditions: SMCs
Protocol: (§1) Aortic smooth muscle cells and auricular chondrocytes were grown on tissue culture polystyrene with and without 50 μg/ml ascorbic acid added to the media. ECM protein production by the cells over a 2-day time period was determined by examining the amount of ^3H-glycine incorporated into the ECM elaborated by the cells.

Auricular chondrocytes [2] = experiment: Matrix production in the presence of ascorbic acid, auricular chondrocytes; type: cell-based
Protocol: as §1

SMCs [3] = experiment: Matrix protein production on peptide-modified glass surfaces (3H-glycine incorporation into ECM); type: cell-based, Wistar-Kyoto rats; conditions: for increase in matrix production per cell over that produced when no TGF-β was added: 0.04 pmol/ml (1 ng/ml) soluble TGF-β in the media, 2 days
Source text: (§2) Chemicals were obtained from Sigma Chemical Co. (St. Louis, Mo.) unless otherwise stated. SMCs from the thoracic aorta of Wistar-Kyoto rats were isolated and characterized as previously described by Scott-Burden, et al., Hypertension 13:295-305 (1989). Human aortic smooth muscle cells (HASMCs) were obtained from Clonetics (San Diego, Calif.). Both SMCs and HASMCs were maintained on Minimal Essential Medium Eagle supplemented with 10% fetal bovine serum (FBS; BioWhittaker, Walkersville, Md.), 2 mM L-glutamine, 500 units penicillin and 100 mg/l streptomycin (MEM). Cells were incubated at 37° C. in a 5% CO2 environment.
Peptides used in this study were RGDS (SEQ ID NO:1), VAPG (SEQ ID NO:2), and KQAGDV (SEQ ID NO:3) (Research Genetics, Huntsville, Ala.). RGES (SEQ ID NO:4) was used as a non-adhesive control peptide. The peptides were acetylated and coupled to aminophase glass slides as previously described by Mann, et al., Biomaterials 20:2281-2286 (1999). Briefly, aminophase slides were prepared by incubating glass slides with 3-aminopropyltriethoxysilane in dry acetone at 37° C. overnight. Acetylated peptides were then coupled to the slides using 1-ethyl-3-(3-dimethylaminopropyl) carbodiimide (EDAC) chemistry. Slides were sterilized under UV light overnight prior to use.
Matrix protein production was evaluated as previously described by Mann (1999). Suspensions of SMCs were prepared in MEM supplemented with 5 μg/ml ascorbic acid at a concentration of 40,000 cells/ml. For samples receiving TGF-β, 0.04 pmol/ml (1 ng/ml) unmodified TGF-β or 0.04 pmol/ml acryloyl-PEG-TGF-β was added to the media. Cell suspensions to be used for measurement of ECM protein production were also supplemented with 1 μCi/ml ^3H-glycine (40 Ci/mmol). The glass slides were attached to FlexiPerm strips in QuadriPerm Cell Culture Vessels (Heraeus, Osterode am Harz, Germany) to create eight wells (1.11×0.79×0.79 cm) on each slide. Four of the wells on each slide were utilized to measure ECM production, while the remaining four wells were utilized for cell number determination and were cultured in the absence of ^3H-glycine. Cell number was determined after 2 days of culture by preparing single cell suspensions using trypsin and counting cells using a Coulter counter (Multisizer #0646, Coulter Electronics, Hialeah, Fla.).
To evaluate synthesis of ECM proteins, the cell growth media was supplemented with ^3H-glycine, as described above. Two days following ^3H-glycine addition, cells were removed non-enzymatically with 25 mM ammonium hydroxide, then rinsed with 70% ethanol and dried. This process leaves intact the ECM elaborated by cells during culture (Jones, et al., Proc. natl. Acad. Sci. USA 76:353-357 (1979)). Sequential enzyme digestion was used as previously described by Mann (1999) to determine the gross composition of the ECM proteins. Briefly, the ECM was digested first with trypsin, followed by elastase, and then collagenase. After the final enzymatic digestion, any material remaining on the substrate was dissolved by incubation with 1 N NaOH. Aliquots were taken from each step of the digest for scintillation counting.

SMCs [4] = experiment: DNA and hydroxyproline determination in RGDS-containing PEG hydrogels seeded with SMCs; type: cell-based, Wistar-Kyoto rats; conditions: 0.04 pmol/ml, 7 days of culture
Source text: as §2, with “environment. […]” for “environment.”
After 7 days of culture, hydrogels were removed from the culture media, weighed, and digested with 1 ml 0.1 N NaOH overnight at 37° C. […] DNA content of the digested, neutralized hydrogels was determined using a fluorescent DNA binding dye, Hoechst 33258 (Molecular Probes, Eugene, Oreg.). Fluorescence of the samples was determined using a fluorometer (VersaFluor, Bio-Rad Laboratories, Hercules, Calif.) with excitation filter at 360 nm and emission filter at 460 nm, and compared to fluorescence of calf thymus DNA standards.
Hydroxyproline concentration was determined by oxidation with chloramine T (ICN Biomedicals, Aurora, Ohio) and development with p-dimethylaminobenzaldehyde (ICN Biomedicals) (Woessner, et al. Arch. Biochem. Biophys. 93:440-447 (1961)). […]

[5] = system: Aortic smooth muscle cells; experiment: Dose response of aortic smooth muscle cells to TGF-β on RGDS-coupled aminophase glass; type: cell-based
Protocol: Aortic smooth muscle cells were grown on aminophase glass that had 0.5 nmol/cm^2 RGDS (SEQ ID NO:1) covalently coupled to the glass. TGF-β was added to the media at 0, 1, or 5 ng/ml (0, 4×10^−5, 2×10^−4 nmol/ml). ECM protein production by the cells over a 2-day time period was determined by examining the amount of ^3H-glycine incorporated into the ECM elaborated by the cells.

Auricular chondrocytes [6] = experiment: Dose response of auricular chondrocytes to TGF-β on tissue culture polystyrene; type: cell-based
Protocol: Auricular chondrocytes were grown on tissue culture polystyrene with varying amounts of TGF-β added to the media: 0, 1, 5, 10, 25, or 100 ng/ml. ECM protein production by the cells over a 2-day time period was determined by examining the amount of ^3H-glycine incorporated into the ECM elaborated by the cells.

[7] = 50 μg/ml ascorbic acid in the media, 2 days
[8] = 50 μg/ml ascorbic acid, over 2 days
[9] = RGDS-modified glass surfaces, 0.04 pmol/ml in the media

Compound	ECM protein production per cell [1, 7]	cell numbers (proliferation) [1, 8]	ECM protein production per cell (Auricular chondrocytes [2]; [7])	cell numbers (proliferation) (Auricular chondrocytes [2]; [8])	matrix production compared with absence of TGF-β (SMCs [3]; [9])	matrix production compared with unmodified TGF-β (SMCs [3]; [9])	increase in matrix production per cell over that produced when no TGF-β was added (SMCs [3]; KQAGDV surfaces) [%]	matrix production compared with the non-adhesive control (RGES) (SMCs [3]; RGDS and KQAGDV modified surfaces, 1 ng/ml TGF-β in the media)	increase in matrix production per cell over that produced when no TGF-β was added (SMCs [3]; RGDS surfaces) [%]	increase in matrix production per cell over that produced when no TGF-β was added (SMCs [3]; VAPG surfaces) [%]	hydroxyproline (collagen) production compared with no TGF-β (SMCs [4])	cell numbers (proliferation) ([5]; TGF-β 1 or 5 ng/ml, over 2 days)	ECM protein production per cell (% of control) ([5]; TGF-β in the media at both 1 and 5 ng/ml, 2 days)	optimal concentrations to induce ECM production ([5]; aortic smooth muscle cells)	ECM protein production per cell (Auricular chondrocytes [6]; TGF-β in the media at concentrations above 1 ng/ml, 2 days)	cell numbers (proliferation) (Auricular chondrocytes [6]; TGF-β up to 100 ng/ml, over 2 days)	optimal concentration for ECM protein production per cell (Auricular chondrocytes [6]; auricular chondrocytes, 2 days) [ng/mL]
O=C1O[C@H]([C@@H](O)CO)C(O)=C1O [ascorbic acid]	increased	did not increase	increased	did not increase	–	–	–	–	–	–	–	–	–	–	–	–	–
acryloyl-PEG-TGF-β [polymer-conjugated TGF-β]	–	–	–	–	greater amounts of matrix	less matrix was produced	–	–	–	–	–	–	–	–	–	–	–
transforming growth factor-beta [TGF-β]	–	–	–	–	greater amounts of matrix	–	104	increased over that seen with the non-adhesive control	224	20	More hydroxyproline	did not increase	increased	one and five	increased	did not increase	25

Source: US7635592B2, “Tissue engineering scaffolds promoting matrix protein production” (Rice University, priority 2000, dated 2009)
